The values that follow are results of earlier work, collected in US11679093B2, “2-naphthimidamides, analogues thereof, and methods of treatment using same” (priority 2018, dated 2023).

The test system of this data set is Influenza A virus (IAV). To be noted: fully differentiated mucociliated bronchiolar epithelium isolated from multiple human donors.

For `N=C(N)Nc1ccc(C(=O)Oc2ccc3cc(C(=N)N)ccc3c2)cc1` [Nafamostat, 6-carbamimidoylnaphthalen-2-yl 4-guanidinobenzoate], the antiviral activity entry is “exhibit antiviral activity”.
